Experimental data as given in ChEMBL document CHEMBL1201862, “PubChem BioAssay data set” (2004).
Activity calls are given as the source filed them.

Columns and labels:
BJ [1] = assay: cytotoxicity toward BJ-TERT fibroblasts, dose response, cell-based, RAS-independent, luminescence (AID 1933); assay type: functional; settings: Homo sapiens
[2] = Luminescence Cell-Based Dose Response HTS to Identify Inhibitors of 5'UTR Stem-Loop Driven Prion Protein mRNA Translation in H4 Neuroglioblastoma Cells. [Related pubchem assays: 1827 (Project Summary), 1813 (Primary HTS)]; assay type: functional
[3] = inhibitors of firefly luciferase expression or activity, dose response, H4 neuroglioma cells, luminescence (AID 1990); assay type: functional, cell-based
BJ [4] = assay: cytotoxicity toward BJ-TERT-LT-ST fibroblasts, dose response, cell-based, RAS-independent, luminescence (AID 1935); assay type: functional; settings: Homo sapiens;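 further: BJ fibroblasts immortalized with TERT plus LT and ST oncogenes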
BJ [5] = assay: cytotoxicity toward Ras-transformed BJeLR fibroblasts, dose response, cell-based, alamar blue fluorescence, cherrypicked samples (AID 2631); assay type: functional; settings: Homo sapiens;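 further: confirmatory dose-response assay in RAS-dependent BJ fibroblasts engineered with TERT, LT and ST, with cytotoxicity read by fluorescence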
[6] = Shn3 3'UTR reporter inhibitors, dose response, cell-based, Clone20 osteoblasts, firefly luciferase, cherry-picked (AID 624132); assay type: functional;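 further: firefly luciferase luminescence from reporter carrying the Shn3 3'UTR in osteoblasts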
[7] = cytotoxicity toward DRD oncogenic fibroblasts, dose response, cell-based, non-viral oncogenic, luminescence (AID 1934); assay type: functional; settings: Homo sapiens
[8] = control 3'UTR Renilla luciferase suppression, dose response, counter-screen for Shn3 inhibitor project, cell-based, Clone20-Shn3RL, cherry-picked (AID 624133); assay type: functional
[9] = HepG2 cell cytotoxicity, dose response, cytotoxicity control for Shn3 inhibitor project, CellTiter-Glo, cherry-picked (AID 624134); assay type: functional, cell-based
[10] = target: Mothers against decapentaplegic homolog 3 (Homo sapiens, UniProt P84022); assay: SMAD3 transcription factor inhibitors, dose response (AID 715); assay type: functional
BJ [11] = assay: cells; assay type: functional, cell-based; settings: Homo sapiens
HEK293 = assay: inhibitors of LMP1-driven NF-kB reporter, dose response, cell-based, HEK293, luciferase, cherry-pick (AID 588343); assay type: functional; settings: Homo sapiens
[12] = target: Latent membrane protein 1 (Human herpesvirus 4 (strain B95-8), UniProt P03230); assay: TES1-eGFP NF-kB reporter inhibition versus Tet-On dsRED, dose response, selectivity assay for LMP1 NF-kB inhibitor project, imaging, HEK293T, dual-color eGFP/dsRED, cherry-picks (AID 588398); assay type: functional, cell-based
[13] = inhibitors of SNCA 5'UTR-driven reporter translation, confirmation, H4 neuroglioma cells, luminescence (AID 1988); assay type: functional, cell-based
[14] = inhibitors of PGC1a acetylation in cells, dose response, cell-based, cherry-picked samples (AID 720514); assay type: functional;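 further: potency may reflect raised or lowered acetylation signal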
[15] = target: T1, Apoptotic protease-activating factor 1 (Homo sapiens, UniProt O14727); assay type: functional
T1 sequence (O14727 whole entry): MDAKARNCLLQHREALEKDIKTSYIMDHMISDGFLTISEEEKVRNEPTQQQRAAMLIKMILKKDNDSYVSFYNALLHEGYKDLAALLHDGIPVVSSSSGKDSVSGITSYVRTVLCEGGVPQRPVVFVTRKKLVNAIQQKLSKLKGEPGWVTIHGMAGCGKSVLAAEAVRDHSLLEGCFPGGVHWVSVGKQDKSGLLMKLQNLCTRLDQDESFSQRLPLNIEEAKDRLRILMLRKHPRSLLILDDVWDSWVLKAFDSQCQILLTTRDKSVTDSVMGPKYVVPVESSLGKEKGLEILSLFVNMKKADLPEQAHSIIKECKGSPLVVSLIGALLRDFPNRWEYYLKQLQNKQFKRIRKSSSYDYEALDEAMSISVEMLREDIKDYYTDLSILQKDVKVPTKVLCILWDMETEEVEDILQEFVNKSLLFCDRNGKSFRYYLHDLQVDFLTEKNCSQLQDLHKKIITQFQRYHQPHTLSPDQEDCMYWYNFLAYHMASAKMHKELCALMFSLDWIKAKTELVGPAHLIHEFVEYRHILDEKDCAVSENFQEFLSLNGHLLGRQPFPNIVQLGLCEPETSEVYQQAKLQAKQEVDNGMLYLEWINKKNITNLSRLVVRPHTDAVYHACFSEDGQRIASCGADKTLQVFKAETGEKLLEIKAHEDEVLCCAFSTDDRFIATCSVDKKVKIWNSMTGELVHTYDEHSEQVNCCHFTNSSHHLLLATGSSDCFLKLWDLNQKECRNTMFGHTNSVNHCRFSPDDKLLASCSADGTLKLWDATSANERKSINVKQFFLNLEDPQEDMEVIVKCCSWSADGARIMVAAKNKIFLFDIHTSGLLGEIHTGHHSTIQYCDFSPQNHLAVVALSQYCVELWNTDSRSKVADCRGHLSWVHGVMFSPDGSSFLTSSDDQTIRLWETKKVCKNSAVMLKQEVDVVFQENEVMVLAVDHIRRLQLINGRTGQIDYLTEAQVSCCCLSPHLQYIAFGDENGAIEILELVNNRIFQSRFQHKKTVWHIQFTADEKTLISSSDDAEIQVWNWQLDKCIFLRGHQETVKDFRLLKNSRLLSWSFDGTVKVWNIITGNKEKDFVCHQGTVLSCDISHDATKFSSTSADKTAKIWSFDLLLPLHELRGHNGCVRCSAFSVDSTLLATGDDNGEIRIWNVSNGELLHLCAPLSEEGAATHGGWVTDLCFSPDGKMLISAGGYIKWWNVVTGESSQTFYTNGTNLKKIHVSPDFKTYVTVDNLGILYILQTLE

Vero = assay: host cell cytotoxicity of antiviral hits, dose response, cytotoxicity control for West Nile virus antiviral project, secondary assay (AID 1650); assay type: functional; settings: Chlorocebus sabaeus
[16] = target: T2, Sentrin-specific protease 8 (Homo sapiens, UniProt Q96LD8); assay: SENP8 protease inhibitors, SAR follow-up, biochemical, luminescence (AID 504501); assay type: functional
T2 sequence (Q96LD8 whole entry): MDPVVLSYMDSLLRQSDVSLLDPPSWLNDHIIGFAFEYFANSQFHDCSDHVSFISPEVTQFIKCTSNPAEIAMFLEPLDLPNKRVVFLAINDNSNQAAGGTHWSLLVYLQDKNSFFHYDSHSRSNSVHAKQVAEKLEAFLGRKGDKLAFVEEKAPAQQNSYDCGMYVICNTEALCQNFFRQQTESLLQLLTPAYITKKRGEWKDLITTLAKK

[17] = target: T3, Sentrin-specific protease 6 (Homo sapiens, UniProt Q9GZR1); assay: SAR Analysis of small molecule inhibitors of Sentrin-specific protease 6 (SENP6) using a Luminescent assay. [Related pubchem assays (depositor defined):AID2582, AID2599]; assay type: functional
T3 sequence (Q9GZR1 whole entry): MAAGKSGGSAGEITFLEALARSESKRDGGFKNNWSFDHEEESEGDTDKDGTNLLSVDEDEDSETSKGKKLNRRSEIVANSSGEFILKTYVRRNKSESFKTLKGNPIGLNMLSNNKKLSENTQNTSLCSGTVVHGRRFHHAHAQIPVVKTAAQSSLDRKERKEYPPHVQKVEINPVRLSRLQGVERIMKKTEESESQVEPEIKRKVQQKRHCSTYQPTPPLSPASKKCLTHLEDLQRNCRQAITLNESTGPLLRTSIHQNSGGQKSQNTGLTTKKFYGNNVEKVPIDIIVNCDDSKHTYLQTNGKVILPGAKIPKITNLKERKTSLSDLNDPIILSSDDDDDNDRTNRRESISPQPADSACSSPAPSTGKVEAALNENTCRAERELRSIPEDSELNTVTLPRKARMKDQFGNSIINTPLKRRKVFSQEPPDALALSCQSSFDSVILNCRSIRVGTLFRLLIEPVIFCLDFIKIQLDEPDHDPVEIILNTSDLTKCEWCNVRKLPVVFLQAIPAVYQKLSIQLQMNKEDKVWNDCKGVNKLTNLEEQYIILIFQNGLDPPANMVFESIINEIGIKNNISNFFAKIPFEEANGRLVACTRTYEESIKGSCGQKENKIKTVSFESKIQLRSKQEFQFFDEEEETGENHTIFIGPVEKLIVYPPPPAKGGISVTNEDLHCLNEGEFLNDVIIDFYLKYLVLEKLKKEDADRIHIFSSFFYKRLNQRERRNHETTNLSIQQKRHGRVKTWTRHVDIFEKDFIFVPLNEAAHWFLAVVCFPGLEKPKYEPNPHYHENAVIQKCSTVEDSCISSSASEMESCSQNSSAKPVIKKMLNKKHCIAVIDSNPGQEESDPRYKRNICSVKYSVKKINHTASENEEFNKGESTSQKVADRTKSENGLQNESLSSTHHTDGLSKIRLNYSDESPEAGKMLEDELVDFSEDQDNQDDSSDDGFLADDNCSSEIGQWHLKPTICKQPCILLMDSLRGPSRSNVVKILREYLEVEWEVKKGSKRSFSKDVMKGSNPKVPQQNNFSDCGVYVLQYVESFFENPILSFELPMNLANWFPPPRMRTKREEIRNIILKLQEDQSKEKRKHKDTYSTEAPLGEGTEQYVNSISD

[18] = target: T4, Sentrin-specific protease 7 (Homo sapiens, UniProt Q9BQF6); assay: SENP7 protease inhibitors, SAR follow-up, biochemical, luminescence, set 2 (AID 588600); assay type: functional
T4 sequence (Q9BQF6 whole entry): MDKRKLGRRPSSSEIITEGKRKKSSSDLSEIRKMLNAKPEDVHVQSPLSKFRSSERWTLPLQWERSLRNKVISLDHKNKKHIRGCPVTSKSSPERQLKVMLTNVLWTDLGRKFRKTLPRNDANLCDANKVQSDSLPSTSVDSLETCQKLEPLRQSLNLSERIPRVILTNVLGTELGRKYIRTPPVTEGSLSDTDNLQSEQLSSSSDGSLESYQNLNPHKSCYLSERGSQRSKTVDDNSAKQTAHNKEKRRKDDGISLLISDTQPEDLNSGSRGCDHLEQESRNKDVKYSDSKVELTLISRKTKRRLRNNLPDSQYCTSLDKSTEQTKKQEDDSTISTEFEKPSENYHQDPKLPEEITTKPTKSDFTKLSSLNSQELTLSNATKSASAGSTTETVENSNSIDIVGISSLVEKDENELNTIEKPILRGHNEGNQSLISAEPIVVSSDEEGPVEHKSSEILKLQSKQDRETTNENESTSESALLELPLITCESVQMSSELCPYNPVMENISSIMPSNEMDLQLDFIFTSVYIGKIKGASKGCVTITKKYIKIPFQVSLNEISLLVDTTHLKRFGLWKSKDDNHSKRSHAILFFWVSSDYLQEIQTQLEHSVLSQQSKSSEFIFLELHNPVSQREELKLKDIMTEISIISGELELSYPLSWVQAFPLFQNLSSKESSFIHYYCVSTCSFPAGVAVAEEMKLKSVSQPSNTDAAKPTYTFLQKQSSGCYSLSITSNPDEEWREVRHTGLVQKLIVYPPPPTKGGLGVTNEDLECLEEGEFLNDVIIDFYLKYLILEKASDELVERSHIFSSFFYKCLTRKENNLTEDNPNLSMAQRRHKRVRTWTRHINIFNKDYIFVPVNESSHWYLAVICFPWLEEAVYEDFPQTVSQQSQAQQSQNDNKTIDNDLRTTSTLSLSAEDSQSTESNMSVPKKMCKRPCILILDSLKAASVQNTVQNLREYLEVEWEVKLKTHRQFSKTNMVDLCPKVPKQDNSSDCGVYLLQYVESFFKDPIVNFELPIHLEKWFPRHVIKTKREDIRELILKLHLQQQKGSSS

[19] = target: T3, Sentrin-specific protease 6; assay: SENP6 protease inhibitors, SAR follow-up, biochemical, luminescence, set 2 (AID 588598); assay type: functional
[20] = target: T2, Sentrin-specific protease 8; assay: SENP8 protease inhibitors, SAR follow-up, biochemical, luminescence, set 2 (AID 588601); assay type: functional
Caspase-3 [21] = target: T5, Caspase-3 (Homo sapiens, UniProt P42574); assay: SAR Analysis of small molecule inhibitors of Sentrin-specific proteases (SENPs) using a Caspase-3 Selectivity assay. [Related pubchem assays (depositor defined):AID2540, AID2599, AID434973, AID489001]; assay type: functional
T5 sequence (P42574 whole entry): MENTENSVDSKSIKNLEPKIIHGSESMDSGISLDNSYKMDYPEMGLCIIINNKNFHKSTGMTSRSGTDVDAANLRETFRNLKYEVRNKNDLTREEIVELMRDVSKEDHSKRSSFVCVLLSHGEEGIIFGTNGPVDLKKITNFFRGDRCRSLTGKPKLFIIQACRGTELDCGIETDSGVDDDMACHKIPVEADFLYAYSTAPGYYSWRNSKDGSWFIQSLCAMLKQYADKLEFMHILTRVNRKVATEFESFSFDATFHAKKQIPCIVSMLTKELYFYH

[22] = target: T4, Sentrin-specific protease 7; assay: SENP7 protease inhibitors, SAR follow-up, biochemical, luminescence (AID 504497); assay type: functional
Caspase-3 [23] = target: T5, Caspase-3; assay: caspase-3 inhibitors as off-family protease, SAR follow-up, selectivity assay for SENP protease inhibitor project, biochemical, luminescence, set 2 (AID 588599); assay type: functional
[24] = viability loss in Mcl1-dependent HMC-1-8 cells, dose response, selectivity assay for A1 inhibitor project, cell-based, luminescence, dry powder (AID 504415); assay type: functional; settings: Homo sapiens

Sequence of Latent membrane protein 1 (P03230 whole entry): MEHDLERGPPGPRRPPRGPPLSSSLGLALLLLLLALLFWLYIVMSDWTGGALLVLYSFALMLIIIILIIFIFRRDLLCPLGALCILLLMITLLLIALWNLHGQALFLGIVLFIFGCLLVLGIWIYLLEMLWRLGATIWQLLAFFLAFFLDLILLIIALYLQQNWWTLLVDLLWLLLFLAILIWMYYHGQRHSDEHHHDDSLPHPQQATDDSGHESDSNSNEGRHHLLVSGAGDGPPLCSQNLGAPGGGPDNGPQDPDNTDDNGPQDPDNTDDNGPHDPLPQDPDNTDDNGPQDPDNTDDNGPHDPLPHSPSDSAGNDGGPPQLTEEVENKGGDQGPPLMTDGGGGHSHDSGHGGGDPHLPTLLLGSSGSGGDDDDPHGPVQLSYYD
Sequence of Mothers against decapentaplegic homolog 3 (P84022 whole entry): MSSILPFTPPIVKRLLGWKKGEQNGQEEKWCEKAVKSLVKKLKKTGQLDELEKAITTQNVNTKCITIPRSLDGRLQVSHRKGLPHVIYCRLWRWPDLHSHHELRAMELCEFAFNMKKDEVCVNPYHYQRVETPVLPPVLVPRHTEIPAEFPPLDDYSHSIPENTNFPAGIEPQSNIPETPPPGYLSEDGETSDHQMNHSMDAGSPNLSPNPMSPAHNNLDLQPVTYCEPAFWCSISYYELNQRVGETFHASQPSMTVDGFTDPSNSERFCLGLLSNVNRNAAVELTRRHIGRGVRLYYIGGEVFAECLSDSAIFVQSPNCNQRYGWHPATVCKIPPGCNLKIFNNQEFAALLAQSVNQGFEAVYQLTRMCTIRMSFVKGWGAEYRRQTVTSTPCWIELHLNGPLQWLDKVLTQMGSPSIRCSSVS

CCOC(=O)c1c2c(n(C)c1C)C(=O)C(=O)c1ccc(Br)cc1-2
EC50 (BJ [1]): 4.88 µM (active)
EC50 [2]: 8.25 µM (active)
EC50 [3]: 6.23 µM (active)
EC50 (BJ [4]): 5.56 µM (inconclusive)
EC50 (BJ [5]): 0.52 µM (active)
AC50 [6]: 1.01 µM (active)
EC50 [7]: 5.41 µM (active)
AC50 [8]: 1.6 µM (active)
AC50 [9]: 3.95 µM (active)
IC50 [10]: 10.4 µM (active)
EC50 (BJ [11]): 8.06 µM (inconclusive)
AC50 (HEK293): 2.51 µM (active)
AC50 [12]: 41.1 µM (active)
EC50 [13]: 3.58 µM (active)
AC50 [14]: 4.34 µM (active)
IC50 [15]: 0.797 µM (active)
CC50 (Vero): 6.53 µM (active)

Fc1cccc(F)c1-c1nc(/C=C/c2ccccc2)no1
IC50 [16]: 15 µM (active)
IC50 [17]: 14 µM (active)
IC50 [18]: 8.02 µM (active)
IC50 [19]: 6.72 µM (active)
IC50 [20]: 6.98 µM (active)
IC50 (Caspase-3 [21]): 20 µM (active)
IC50 [22]: 5.5 µM (active)
IC50 (Caspase-3 [23]): 18 µM (active)

O=c1oc2ccccc2c(Nc2cc(Cl)cc(Cl)c2)c1[N+](=O)[O-]
AC50 [24]: 31.2 µM (active)
